Measured values from paper PMC6515238, “Novel C-2 Symmetric Molecules as α-Glucosidase and α-Amylase Inhibitors: Design, Synthesis, Kinetic Evaluation, Molecular Docking and Pharmacokinetics” (Molecules, 2019).

Columns and labels:
glucoamylase = tested on: glucoamylase; parameters: method as in PMID 28482265; details: cited from earlier work
maltase = tested on: maltase; parameters: method as in PMID 28482265; details: cited from earlier work
isomaltase = tested on: isomaltase; parameters: method as in PMID 28482265; details: cited from earlier work
[1] = molecular target: T1, α-amylase from porcine pancreas (Sus scrofa, UniProt P00690); experiment: α-Amylase inhibition assay; assay type: biochemical; details: mean ± SEM; starch substrate, DNSA
T1 construct: α-amylase from porcine pancreas (Sigma A3176-500KU, 089K1661); purchased Sigma A3176-500KU (lot 089K1661); host or cells: porcine pancreas
T1 sequence (P00690 16-511): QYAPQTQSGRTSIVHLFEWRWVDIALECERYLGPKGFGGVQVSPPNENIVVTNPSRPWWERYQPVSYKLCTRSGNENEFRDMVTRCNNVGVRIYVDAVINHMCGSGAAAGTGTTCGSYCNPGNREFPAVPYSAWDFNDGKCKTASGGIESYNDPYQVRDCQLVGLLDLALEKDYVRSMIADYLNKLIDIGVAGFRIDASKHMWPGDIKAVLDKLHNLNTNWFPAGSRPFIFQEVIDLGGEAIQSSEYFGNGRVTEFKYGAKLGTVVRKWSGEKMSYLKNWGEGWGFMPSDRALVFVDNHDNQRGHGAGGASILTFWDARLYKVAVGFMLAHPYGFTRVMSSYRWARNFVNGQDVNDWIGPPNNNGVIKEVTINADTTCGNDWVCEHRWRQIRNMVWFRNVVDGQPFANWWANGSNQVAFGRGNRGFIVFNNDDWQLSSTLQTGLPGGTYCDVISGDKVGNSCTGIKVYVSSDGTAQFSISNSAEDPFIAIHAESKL
Description: The α-amylase inhibitory activity of sinigrin was determined according to a previously reported method with slight modifications. Briefly, 40 μL of a solution of the test inhibitor and 40 μL of enzyme solution (α-amylase from porcine pancreas (Sigma A3176-500KU, 089K1661) in a buffer of 0.02 M sodium phosphate at pH 6.9 with 0.006 M sodium chloride) were added to a 1.5-mL Eppendorf tube and incubated for 10 min at room temperature. […] Then, 100 μL of DNSA colouring reagent (10 g of sodium potassium tartrate, 1 g of 3,5-dinitrosalicylic acid and 20 mL of 2 N NaOH to a final volume of 100 mL in distilled water) was added, and the mixture was incubated in a boiling water bath for 5 min. After cooling to room temperature, the reaction mixture was diluted to 500 μL using distilled water, and the absorbance was recorded at 540 nm. For non-enzymatic reactions, the assays were performed with a blank containing all of the components except the enzyme. The values of the % inhibition and IC50 were calculated from the results of the assays using the same procedure as that described for the α-glucosidase inhibition assays.

[2] = DPPH free radical scavenging assay; details: 100 µg/mL
Description: Radical scavenging activity was determined by modifying a previously reported 2,2-diphenyl-1-picrylhydrazyl (DPPH) assay. The assay solution consisted of 100 µL of DPPH solution (150 µM), 20 µL of the test compounds solution at increasing concentrations, and enough DMSO to bring the volume of solution in each well to 200 µL. The reaction mixture was then incubated for 30 min at room temperature. Ascorbic acid (vitamin C) was used as a reference inhibitor. The assay measurements were carried out using a micro plate reader (OPTIMax, Tunable) at 520 nm. The reaction rates were compared, and the percentages of inhibition caused by the presence of the test inhibitors were calculated. Each concentration was analysed in three independent experiments run in triplicate.

α-glucosidase = α-glucosidase (Saccharomyces cerevisiae, UniProt P53341); experiment: Kinetic study of α-glucosidase (Lineweaver-Burk); assay type: biochemical; details: Lineweaver-Burk plot
Description: To understand the inhibition mechanism of the synthesized compounds on α-glucosidase, an inhibition kinetics study was performed. […] In our evaluation of the kinetics of the enzyme, the Lineweaver-Burk plot of 1/V versus 1/[S] in the presence of different inhibitor concentrations gave a series of straight lines. […] Km increases with increasing concentration, while Vmax remains essentially constant.
A series of experiments was performed to calculate the inhibition kinetics of 5g. The tested concentrations of 5g were 0.00, 0.15 and 0.3. The concentration of substrate, p-nitrophenyl-α-D-glucopyranoside, was between 0.3125 and 10 mM in all the kinetics experiments. The pre-incubation and measurement times were the same as those discussed in the α-glucosidase inhibition assay procedure. The maximal initial velocity was determined from the initial linear portion of absorbance in the first five minutes following the addition of the enzyme at 30 s intervals. The type of inhibition of the enzyme was assessed by preparing Lineweaver-Burk plots of the inverse of the velocities (1/V) versus the inverse of the substrate concentration 1/[S] mM^−1. The EI dissociation constant, Ki, was determined by the secondary plot of 1/V versus the inhibitor concentration.

α-glucosidase, sequence (P53341 whole entry): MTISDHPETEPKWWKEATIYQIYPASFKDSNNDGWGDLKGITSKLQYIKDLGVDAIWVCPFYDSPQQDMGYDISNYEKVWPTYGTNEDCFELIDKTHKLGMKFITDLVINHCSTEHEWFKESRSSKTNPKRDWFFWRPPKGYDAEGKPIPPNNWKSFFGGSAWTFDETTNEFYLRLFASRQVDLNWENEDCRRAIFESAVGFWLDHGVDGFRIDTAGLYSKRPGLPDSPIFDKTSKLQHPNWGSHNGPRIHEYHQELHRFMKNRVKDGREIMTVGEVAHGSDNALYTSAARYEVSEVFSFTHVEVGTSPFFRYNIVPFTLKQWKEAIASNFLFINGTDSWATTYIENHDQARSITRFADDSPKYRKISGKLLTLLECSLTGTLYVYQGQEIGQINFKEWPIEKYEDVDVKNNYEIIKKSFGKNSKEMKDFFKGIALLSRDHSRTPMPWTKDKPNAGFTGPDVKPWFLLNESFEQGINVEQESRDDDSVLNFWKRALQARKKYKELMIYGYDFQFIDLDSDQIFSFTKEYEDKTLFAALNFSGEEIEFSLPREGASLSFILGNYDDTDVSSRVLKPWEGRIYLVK

| SMILES | inhibition of glucoamylase (glucoamylase) [%] | inhibition of maltase (maltase) [%] | inhibition of isomaltase (isomaltase) [%] | melting point [°C] | IC50 [1] [µM] | Free radical scavenging activity (%) [2] | type of inhibition (α-glucosidase) |
| --- | --- | --- | --- | --- | --- | --- | --- |
| C[C@H]1O[C@H](O[C@H]2[C@H](O)[C@@H](O)[C@@H](O[C@H]3[C@H](O)[C@@H](O)C(O)O[C@@H]3CO)O[C@@H]2CO)[C@H](O)[C@@H](O)[C@@H]1N[C@H]1C=C(CO)[C@@H](O)[C@H](O)[C@H]1O (some centres unmarked) [Acarbose, acarbose] | 90 | 60 | 10 | – | – | – | – |
| O=[N+]([O-])c1ccc(/N=N/c2ccc(O)c(/C=N/N=C/c3cc(/N=N/c4ccc([N+](=O)[O-])cc4[N+](=O)[O-])ccc3O)c2)c([N+](=O)[O-])c1 [Compound 5a, (E)-2,2’-((1E,1’E)-Hydrazine-1,2-diylidenebis(methanylylidene))bis(4-((E)-(2,4-dinitrophenyl)diazenyl)phenol)] | – | – | – | 275 | 8.54 ± 0.653 | – | – |
| Oc1ccc(/N=N/c2cccc(Cl)c2Cl)cc1/C=N/N=C/c1cc(/N=N/c2cccc(Cl)c2Cl)ccc1O [Compound 5b, (E)-2,2’-((1E,1’E)-Hydrazine-1,2-diylidenebis(methanylylidene))bis(4-((E)-(2,3-dichlorophenyl)diazenyl)phenol)] | – | – | – | 222 | 28.4 ± 2.17 | – | – |
| Oc1ccc(/N=N/c2ccccc2Cl)cc1/C=N/N=C/c1cc(/N=N/c2ccccc2Cl)ccc1O [Compound 5c, (E)-2,2’-((1E,1’E)-Hydrazine-1,2-diylidenebis(methanylylidene))bis(4-((E)-(2-chlorophenyl)diazenyl)phenol)] | – | – | – | 195 | 9.55 ± 0.73 | – | – |
| Oc1ccc(/N=N/c2ccc(Cl)cc2)cc1/C=N/N=C/c1cc(/N=N/c2ccc(Cl)cc2)ccc1O [Compound 5d, (E)-2,2’-((1E,1’E)-Hydrazine-1,2-diylidenebis(methanylylidene))bis(4-((E)-(4-chlorophenyl)diazenyl)phenol)] | – | – | – | 205 | 9.72 ± 0.863 | did not show significant scavenging potencies | – |
| NS(=O)(=O)c1ccc(/N=N/c2ccc(O)c(/C=N/N=C/c3cc(/N=N/c4ccc(S(N)(=O)=O)cc4)ccc3O)c2)cc1 [Compound 5e, 4,4’-((1E,1’E)-(((1E,1’E)-Hydrazine-1,2-diylidenebis(methanylylidene))bis(4-hydroxy-3,1-phenylene))bis(diazene-2,1-diyl))dibenzenesulfonamide] | – | – | – | 225 | 28.5 ± 2.08 | – | – |
| O=S(=O)([O-])c1ccc(/N=N/c2ccc(O)c(/C=N/N=C/c3cc(/N=N/c4ccc(S(=O)(=O)[O-])cc4)ccc3O)c2)cc1.[Na+].[Na+] [Compound 5f, Sodium 4,4’-((1E,1’E)-(((1E,1’E)-hydrazine-1,2-diylidenebis(methanylylidene))bis(4-hydroxy-3,1-phenylene))bis(diazene-2,1-diyl))dibenzenesulfonate] | – | – | – | 240 | 4.29 ± 0.328 | did not show significant scavenging potencies | – |
| O=[N+]([O-])c1ccc(/N=N/c2ccc(O)c(/C=N/N=C/c3cc(/N=N/c4ccc([N+](=O)[O-])cc4)ccc3O)c2)cc1 [Compound 5g, (E)-2,2’-((1E,1’E)-Hydrazine-1,2-diylidenebis(methanylylidene))bis(4-((E)-(4-nitrophenyl)diazenyl)phenol)] | – | – | – | 215 | 0.438 ± 0.042 | did not show significant scavenging potencies | competitive |
| Oc1ccc(/N=N/c2cccc(Cl)c2)cc1/C=N/N=C/c1cc(/N=N/c2cccc(Cl)c2)ccc1O [Compound 5h, (E)-2,2’-((1E,1’E)-Hydrazine-1,2-diylidenebis(methanylylidene))bis(4-((E)-(3-chlorophenyl)diazenyl)phenol)] | – | – | – | 210 | 0.59 ± 0.012 | – | – |
